Test results: EP0464233A1, “Pharmaceutical combinations against malaria” (priority 1990, dated 1992)
Read-outs that look alike come from different tables or passages of the source.

Tested on: P. berghei NS (resistant to chlorquine)
Experiment: 4-day suppressive test (blood schizontocidal activity), chess-board / isobologram analysis
Format: in vivo, Plasmodium berghei
Settings: for ED50 / ED90: Plasmodium berghei, in Mus musculus, po; for group mean of parasitaemia as of control: male Swiss mice, D + 4, ± standard error; for parasitaemia: Arteether alone, male mouse, Table II (extended doses)
Experimental: The evaluation of blood schizontocidal activities was carried out following the procedure described herein after using the Chloroquine-resistant strain of P. berghei (NS) strain. (Chawira A. N., et al. 1987, Trans, R. Soc. Trop. Med. Hyg. 81 : 554-558).
The methodology followed in the present study was adopted form "4- day suppressive test" (ref. Peters, W.; 1987, Chemotherapy and Drug Resistance in Malaria, Vol. 1, p 111). The experimental data has been analysed by Chess Board Method in the form of an isobologram, (Ref. Chawira A. N., and Warhurst D. C.; 1987, J. Trop. Med. Hyg. 90 : 1-8). ED₅₀ and ED₉₀ was determined using a log-probit method.
Host .. Swiss Mice (20-22 gms) Sex .. Male Parasit .. P. berghei NS (resistant to chlorquine) Route of Infection .. Intravenous Route of drug Administration .. per os
Artheether : A few drops of Kardi oil and Tween^R 80 were added to Arteether to make a paste, followed by 0.5 % Tylose^R (Carboxy methyl cellulose) solution. A homogenous suspension was prepared using a tissue homogenizer in Teflon^R coated glass tube. […] Mefloquine HCl : A solution was prepared in 0.5 % Tylose using a tissue homogenizer.
Drug was administered as follows: (+ 2 H, 24 H, 48 H, 72 H) Each day one dose for 4 days
Slides were drawn from individual mouse and stained with Giemsa on D + 4. The slides were examined under oil immersion lens and parasitaemia was recorded from 15 fields at random. The average of infected and uninfected erythrocytes was determined for each animal. Finally the average parasitaemia of the whole group was determined and considered as 100 % for comparison purposes with the treated group.
At least 5000 to 7500 erythrocytes were examined at random to determine the parasitaemia. In certain cases, where parasitaemia was extremely low 10000 to 15000 erythrocytes were examined.

Row | SMILES | ED50 (read-out: ED50 of Quinine) [mg/kg] | ED90 (read-out: ED90 of Quinine) [mg/kg] | group mean of parasitaemia as of control (Quinine 25 mg/kg X 4, p.o., no Arteether) | group mean of parasitaemia as of control (Quinine 37.5 mg/kg X 4, p.o., no Arteether) | group mean of parasitaemia as of control (Quinine 50 mg/kg X 4, p.o., no Arteether) | group mean of parasitaemia as of control (Arteether 0.25 mg/kg X 4, p.o., no Quinine) | group mean of parasitaemia as of control (Arteether 0.5 mg/kg X 4, p.o., no Quinine) | group mean of parasitaemia as of control (Arteether 1.0 mg/kg X 4, p.o., no Quinine) | group mean of parasitaemia as of control (Arteether 2.0 mg/kg X 4, p.o., no Quinine) | parasitaemia (Dose 2.0 mg/kg X 4) | parasitaemia (Dose 3.0 mg/kg X 4) | parasitaemia (Dose 4.0 mg/kg X 4) | parasitaemia (Dose 5.0 mg/kg X 4) | ED50 [mg/kg] | ED90 [mg/kg] | ED50 (read-out: ED50 of Arteether) [mg/kg] | ED90 (read-out: ED90 of Arteether) [mg/kg]
1 | C=C[C@H]1C[N@@]2CC[C@H]1C[C@H]2[C@H](O)c1ccnc2ccc(OC)cc12 [Quinine] | 61 | 110 | 92 ± 2.36 | 85 ± 5.8 | 70 ± 11.8 | – | – | – | – | – | – | – | – | – | – | – | –
2 | CCO[C@H]1O[C@@H]2O[C@@]3(C)CC[C@H]4[C@H](C)CC[C@@H]([C@H]1C)[C@@]24OO3 [Arteether] | – | – | – | – | – | 90 ± 13.9 | 87 ± 10.8 | 84 ± 10.8 | 77 ± 1.27 | 82 | 57 | 25 | 12 | 2.8 | 5.2 | 2.8 | 5.2
